The term chromatographic logP denotes lipophilicity estimated from chromatographic retention.

SMILES strings stand for the structures.

For ten molecules, inhibition, chromatographic logP and pest or weed control results are on record in patent US20250042886A1, “BIS(HETERO)ARYL THIOETHER OXADIAZINES AS FUNGICIDAL COMPOUNDS” (Bayer Aktiengesellschaft, priority 2021, published 2025).

Data set [1] deals with Botrytis cinerea. Nature of the data set: Botrytis cinerea in vitro cell test. Type of data set: cell-based. As to conditions: 144 h, 50 μMol/l of active ingredient, liquid culture, 6 days incubation, read-out: efficacy (inhibition of fungal growth). A digest of the protocol: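 Compounds from DMSO stocks added at a range of concentrations to a defined mineral-salt/sucrose liquid medium inoculated with B. cinerea spores. After 6 days' incubation, mycelium growth was read by absorbance; inhibition of germination and growth was calculated against fungicide-free control wells.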

Data set [2] relates to Alternaria alternata. Nature of the data set: Alternaria alternata in vitro cell test. As to conditions: 120 h, 50 μMol/l of active ingredient, liquid culture, 5 days incubation, read-out: efficacy (inhibition of fungal growth). Type of data set: cell-based. The method, then: (§1) B-5. Alternaria alternata In Vitro Cell Test • Solvent: DMSO • Culture medium: 14.6 g anhydrous D-glucose (VWR), 7.1 g Mycological Peptone (Oxoid), 1.4 g granulated Yeast Extract (Merck), QSP 1 liter • Inoculum: spores suspension Fungicides were solubilized in DMSO and the solution used to prepare the required range of concentrations. […] A spore suspension of A. alternata was prepared and diluted to the desired spore density. Fungicides were evaluated for their ability to inhibit spore germination and mycelium growth in liquid culture assay. The compounds were added in the desired concentration to the culture medium with spores. After 5 days incubation, fungi-toxicity of compounds was determined by spectrometric measurement of mycelium growth. Inhibition of fungal growth was determined by comparing the absorbance values in wells containing the fungicides with the absorbance in control wells without fungicides.

Data set [3] relates to Pyrenophora teres. As to the kind of experiment: Pyrenophora teres in vitro cell test. Type of data set: cell-based. As to conditions: 144 h, 50 μMol/l of active ingredient, liquid culture, 6 days incubation, read-out: efficacy (inhibition of fungal growth). The method, then: as §1, with “B-8. Pyrenophora teres In” for “B-5. Alternaria alternata In”, “Inoculum: spore” for “Inoculum: spores”, “of P. teres” for “of A. alternata”, “After 6” for “After 5”

A short description of data set [4]: Measurement of Log P values by HPLC on reversed phase columns (EEC directive 79/831 Annex V.A8). Conditions: Table 1, compounds of formula (I); method [a]: LC-UV, acidic range, 0.1% formic acid in water and acetonitrile. Type of data set: physicochemical.
For data set [5], the system named is Pyricularia oryzae. Nature of the data set: microbe, parasite or virus in culture. Type of data set: cell-based. Conditions: 120 h, read-out: efficacy (inhibition of fungal growth), 50 μMol/l of active ingredient, liquid culture, 5 days incubation.
The subject of data set [6] is Colletotrichum lindemuthianum. Nature of the data set: Colletotrichum lindemuthianum in vitro cell test. It counts as cell-based. As to conditions: 144 h, 50 μMol/l of active ingredient, liquid culture, 6 days incubation, read-out: efficacy (inhibition of fungal growth). The method, then:
as §1, with “B-7. Colletotrichum lindemuthianum In” for “B-5. Alternaria alternata In”, “of C. lindemuthianum” for “of A. alternata”, “inhibit spores” for “inhibit spore”, “After 6” for “After 5”

Data set [7] deals with Fusarium culmorum. Nature of the data set: Fusarium culmorum in vitro cell test. Type of data set: cell-based. As to conditions: 120 h, 50 μMol/l of active ingredient, liquid culture, 5 days incubation, read-out: efficacy (inhibition of fungal growth). The method, then: B-10. Fusarium culmorum In Vitro Cell Test • Solvent: DMSO • Culture medium: 1 g KH2PO4 (VWR), 1 g K2HPO4 (VWR), 0.5 g Urea (VWR), 3 g KNO3 (Prolabo), 10 g saccharose (VWR), 0.5 g MgSO4, 7H2O (Sigma), 0.07 g CaCl2, 2H2O (Prolabo), 0.2 mg MnSO4, H2O (Sigma), 0.6 mg CuSO4, 5H2O (Sigma), 7.9 mg ZnSO4, 7H2O (Sigma), 0.1 mg H3BO3 (Merck), 0.14 mg NaMoO4, 2H2O (Sigma), 2 mg thiamine (Sigma), 0.1 mg biotine (VWR), 4 mg FeSO4, 7H2O (Sigma), QSP 1 liter • Inoculum: spores suspension
Fungicides were solubilized in DMSO and the solution used to prepare the required range of concentrations. The final concentration of DMSO used in the assay was ≤1%.
A spore suspension of F. culmorum was prepared and diluted to the desired spore density.
Fungicides were evaluated for their ability to inhibit spore germination and mycelium growth in liquid culture assay. The compounds were added in the desired concentration to the culture medium with spores. After 5 days incubation, fungi-toxicity of compounds was determined by spectrometric measurement of mycelium growth. Inhibition of fungal growth was determined by comparing the absorbance values in wells containing the fungicides with the absorbance in control wells without fungicides.

Data set [8] concerns Botrytis cinerea. Nature of the data set: In vivo preventive test on Botrytis cinerea (grey mould). Conditions: 500 ppm of active ingredient, sprayed on young gherkin or cabbage plants 24 h before inoculation, evaluated 4 to 5 days after inoculation, read-out: efficacy. The procedure: The active ingredients were made soluble and homogenized in a mixture of Dimethyl sulfoxide/Acetone//Tween® 80 and then diluted in water to the desired concentration. The young plants of gherkin or cabbage were treated by spraying the active ingredient prepared as described above. Control plants were treated only with an aqueous solution of Acetone/Dimethyl sulfoxide/Tween® 80. After 24 hours, the plants were contaminated by spraying the leaves with an aqueous suspension of Botrytis cinerea spores.

The test system of data set [9] is Alternaria brassicae. As to the kind of experiment: In vivo preventive test on Alternaria brassicae (leaf spot on radish or cabbage). Conditions: 500 ppm of active ingredient, sprayed on young radish or cabbage plants 24 h before inoculation, evaluated 3 to 4 days after inoculation, read-out: efficacy. The procedure: B-1. […] The active ingredients were made soluble and homogenized in a mixture of Dimethyl sulfoxide/Acetone//Tween® 80 and then diluted in water to the desired concentration. The young plants of radish or cabbage were treated by spraying the active ingredient prepared as described above. Control plants were treated only with an aqueous solution of Acetone/Dimethyl sulfoxide/Tween® 80. After 24 hours, the plants were contaminated by spraying the leaves with an aqueous suspension of Alternaria brassicae spores.

As to `Cc1cc([C@@H]2CON=C(c3c(Sc4cccc(Cl)c4Cl)nnc(C)c3C)N2)c(C)s1` (racemic) [Compound I-118], the inhibition at 50 µM fell in the range of 90 to 100% in [1]; 90 to 100% in data set [2]; 90 to 100% in data set [3]; 80 to 89% in data set [5]; 80 to 89% in data set [6]. This molecule had a chromatographic logP in data set [4] of 3.7.

Consider `Cc1cc([C@@H]2CON=C(c3c(Sc4ccc5ccccc5c4)nnc(C)c3C)N2)c(C)s1` (racemic) [Compound I-122], for which the inhibition at 50 µM in data set [2] was 70 to 79%; in [3] it was 80 to 89%; in data set [7] it was 90 to 100%; in data set [6] it was 70 to 79%. In addition, in [4], the chromatographic logP was 3.68.

Consider `Cc1ccc([C@H]2CON=C(c3c(Sc4cccc(Cl)c4Cl)nnc4ccccc34)N2)s1` (racemic) [Compound I-131], for which the inhibition at 50 µM fell in the range of 90 to 100% in data set [1]; 90 to 100% in data set [2]; 90 to 100% in data set [3]; 80 to 89% in [5]; 90 to 100% in data set [6]. The molecule further showed a chromatographic logP in [4] of 3.8. The pest or weed control at 500 ppm in data set [8] and in [9] was 90 to 100% in each case.

In the case of `Cc1cc([C@H]2CON=C(c3c(Sc4ccc(C)c(C)c4)nnc(C)c3C)N2)c(C)s1` (racemic) [Compound I-111], the inhibition at 50 µM in data set [1] was 90 to 100%; in [2], 70 to 79%; in data set [3], 90 to 100%; in data set [7] it was 90 to 100%; in [6] it was 90 to 100%. For the same molecule, the chromatographic logP in data set [4] was found to be 3.64. Besides, in data set [8], the pest or weed control at 500 ppm lay within 80 to 89%.

For the molecule `Cc1ccc(C2CON=C(c3c(Sc4cccc(Cl)c4)nnc(C)c3C)N2)s1` (racemic) [Compound I-104], the inhibition at 50 µM in [1], in data set [2], in [3], in data set [7], in [5] and in [6] was 90 to 100% throughout. In addition, in data set [4], the chromatographic logP was 3.14.

`Cc1ccc([C@H]2CON=C(c3c(Sc4cccc(F)c4)nnc(C)c3C)N2)s1` (racemic) [Compound I-125]: the inhibition at 50 µM was in the range of 90 to 100% in [1]; 70 to 79% in [2]; 80 to 89% in data set [3]; 90 to 100% in [7]; 80 to 89% in data set [5]; 90 to 100% in data set [6]. The molecule further registered a chromatographic logP in data set [4] of 2.83.

Take `Cc1ccc([C@@H]2CON=C(c3c(Sc4cccc(Cl)c4Cl)nnc(C)c3C)N2)s1` (racemic) [Compound I-136]: the inhibition at 50 µM in data set [1] lay within 90 to 100%; in data set [2], 80 to 89%; in data set [3], 90 to 100%; in data set [5] it was 70 to 79%. Further, the chromatographic logP in data set [4] is 3.31.

Turning to `Cc1ccc(C2CON=C(c3c(Sc4cccc(Cl)c4F)nnc(C)c3C)N2)s1` (racemic) [Compound I-103], the inhibition at 50 µM was 90 to 100% in [1]; 90 to 100% in data set [2]; 90 to 100% in [3]; 80 to 89% in [7]; 90 to 100% in [5]; 90 to 100% in data set [6]. The chromatographic logP in data set [4] was 3.21.

With `Cc1cc([C@@H]2CON=C(c3c(Sc4cccc(Cl)c4F)nnc(C)c3C)N2)c(C)s1` (racemic) [Compound I-071], the inhibition at 50 µM in [1], in [2], in data set [3], in [7], in data set [5] and in data set [6] was 90 to 100% each time. In data set [4], this molecule yielded a chromatographic logP of 3.58.

Regarding `Cc1cc([C@H]2CON=C(c3c(Sc4ccccc4Cl)nnc(C)c3C)N2)c(C)s1` (racemic) [Compound I-059], the inhibition at 50 µM lay in the range of 90 to 100% in data set [1], 80 to 89% in data set [2] and 90 to 100% in [3]. This molecule also gave a chromatographic logP in data set [4] of 3.31. Besides, the pest or weed control at 500 ppm in data set [8] and in [9] was 90 to 100% throughout.
